This note sets out measurements from ChEMBL document CHEMBL5512668, “Macrocyclic Azapeptide Nitriles: Structure-Based Discovery of Potent SARS-CoV-2 Main Protease Inhibitors as Antiviral Drugs” (J Med Chem, 2024).

In data set [1] the target is T1, Replicase polyprotein 1ab (Severe acute respiratory syndrome coronavirus 2, UniProt P0DTD1).
In data set [2] the target is T1, Replicase polyprotein 1ab. This is another data set of the same source.
The target in data set [3] is Cathepsin S (Homo sapiens, UniProt P25774). Put plainly: Inhibition of recombinant human cathepsin S using Z-Phe-Arg-AMC as substrate incubated for 60 mins.
Sequence of Cathepsin S (P25774 whole entry): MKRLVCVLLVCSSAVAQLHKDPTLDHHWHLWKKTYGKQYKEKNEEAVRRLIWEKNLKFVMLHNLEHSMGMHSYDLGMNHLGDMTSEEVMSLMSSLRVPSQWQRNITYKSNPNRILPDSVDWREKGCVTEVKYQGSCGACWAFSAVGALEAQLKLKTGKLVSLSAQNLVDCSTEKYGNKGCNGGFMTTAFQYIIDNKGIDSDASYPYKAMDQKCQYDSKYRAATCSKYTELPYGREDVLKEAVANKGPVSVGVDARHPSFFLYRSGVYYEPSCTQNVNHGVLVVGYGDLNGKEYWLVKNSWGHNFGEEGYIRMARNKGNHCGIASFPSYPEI
Data set [4] concerns the target Procathepsin L (Homo sapiens, UniProt P07711). In words: Inhibition of human cathepsin L using Z-Phe-Arg-pNA as substrate incubated for 60 mins.
Data set [5] concerns SARS-CoV-2. Put plainly: microbe, parasite or virus in culture. The settings on record: Severe acute respiratory syndrome coronavirus 2, JPN/TY/WK-521, VeroE6/TMPRSS2, 24 h, read-out: INH.
Data set [6] has as its system SARS-CoV-2. Put plainly: microbe, parasite or virus in culture. As to conditions: Severe acute respiratory syndrome coronavirus 2, JPN/TY/WK-521, VeroE6/TMPRSS2.
Data set [7] concerns SARS-CoV-2. In words: microbe, parasite or virus in culture. The settings on record: Severe acute respiratory syndrome coronavirus 2, JPN/TY/WK-521, VeroE6/TMPRSS2. This is another data set of the same source.
Data set [8] has as its system SARS-CoV-2. In words: microbe, parasite or virus in culture. As to conditions: Severe acute respiratory syndrome coronavirus 2, WK-521, Vero C1008.
Data set [9] can be described thus: Stability of compound in DMEM assessed as time required for 50% compound degradation at 100 uM incubated for 24 hrs by HPLC method.
The nature of data set [10]: in vitro. As to conditions: male, human, plasma.
Data set [11] has as its system SARS-CoV-2. In words: microbe, parasite or virus in culture. The settings on record: Severe acute respiratory syndrome coronavirus 2, JPN/TY/WK-521, VeroE6/TMPRSS2, 24 h, read-out: INH. This is another data set of the same source.

Sequence of Procathepsin L (P07711 whole entry): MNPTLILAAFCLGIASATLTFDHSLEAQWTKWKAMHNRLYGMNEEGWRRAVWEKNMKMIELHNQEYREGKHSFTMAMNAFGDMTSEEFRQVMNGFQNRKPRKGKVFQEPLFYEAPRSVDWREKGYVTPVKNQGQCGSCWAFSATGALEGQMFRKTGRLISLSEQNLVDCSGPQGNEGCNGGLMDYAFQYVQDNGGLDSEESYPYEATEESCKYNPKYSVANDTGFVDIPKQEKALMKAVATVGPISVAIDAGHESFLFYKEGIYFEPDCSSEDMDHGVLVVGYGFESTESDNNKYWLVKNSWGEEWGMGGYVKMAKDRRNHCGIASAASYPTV

By IC50 is commonly meant the concentration needed to halve the response being measured. A word on the Ki: it is the equilibrium dissociation constant of an inhibitor or competing ligand from its target. For the compound `CN1C(=O)[C@H](Cc2ccccc2)N(C(=O)CNC(=O)c2cccs2)CC2(CC2)COc2c(Cl)cccc2CN1C#N`, it took 0.03 µM to reach half-maximal inhibition in data set [1] (IC50). This compound came in with a Ki in data set [2] of 0.0211 µM.

In [1], `CN1C(=O)[C@H](Cc2ccccc2)NC(=O)COCCOCCOc2ccc(F)cc2CN1C#N` displayed an IC50 of 2.61 µM. Besides, the Ki in data set [3] worked out at 0.765 µM.

Regarding `CN1C(=O)[C@H](Cc2ccccc2)N(C(=O)[C@@H](NC(=O)c2cccs2)C(C)(C)C)CCCOc2ccc(Cl)c(F)c2CN1C#N`, in data set [3], the Ki amounted to 3.02 µM.

In data set [1], `CN(C(=O)[C@H](Cc1ccccc1)NC(=O)[C@@H](NC(=O)C1CCCC1)C(C)(C)C)N(C#N)Cc1ccc(Cl)cc1` registered an IC50 of 0.032 µM. Moreover, the values for the Ki in data set [4] and in data set [2] were 0.344 µM and 0.023 µM, respectively.

Compound `CN1C(=O)[C@H](CCc2ccccc2)NC(=O)COCCOc2ccc(F)cc2CN1C#N` showed an IC50 in [1] of 1.47 µM. Besides, the Ki in [3] turned out to be 0.179 µM.

In [1], `CN(C(=O)[C@H](Cc1ccccc1)NC(=O)[C@@H](NC(=O)c1cccs1)C(C)(C)C)N(C#N)Cc1ccc(Cl)cc1` had an IC50 of 0.019 µM. Also, the Ki in [4] was 0.179 µM; in data set [2], 0.0133 µM.

The EC50 is the concentration that produces a half-maximal response. For the compound `CC(C)(C)[C@H](NC(=O)C(F)(F)F)C(=O)N1C[C@H]2[C@@H]([C@H]1C(=O)N[C@H](C#N)C[C@@H]1CCNC1=O)C2(C)C`, the inhibition at 3.33 µM in data set [5] came out at 93%. In addition, the EC50 in data set [6] stood at 0.86 µM. The values for the IC50 in data set [7] and in data set [8] were 0.16 µM and 0.94 µM, respectively.

On to `CN1C(=O)[C@H](Cc2ccccc2)N(C(=O)COc2ccc(Cl)cc2Cl)CCCOc2ccc(Cl)c(F)c2CN1C#N`, for which the IC50 in [1] was found to be 0.057 µM. Besides, the inhibition constant Ki in [3] was 1.82 µM.

What is called half-life is the time in which the quantity being followed falls by half. Compound `CN1C(=O)[C@H](Cc2ccccc2)N(C(=O)CNC(=O)c2cccs2)CCCOc2c(Cl)cccc2CN1C#N` had an IC50 in [1] of 0.003 µM. In addition, the Ki in data set [3] was 0.47 µM; in data set [2], 0.00229 µM. In data set [9], the half-life at 24 h, 100 µM was 7.65 h. In [10], this compound displayed a half-life at 100 µM of 3 h. The inhibition at 3.33 µM in [5] was 63%. Besides, the EC50 in [6] amounted to 2.55 µM.

For `CN1C(=O)[C@H](CCc2ccccc2)NC(=O)COCCOCCOc2ccc(F)cc2CN1C#N`, in data set [3], the Ki is 0.662 µM.

In [1], `CN(C(=O)[C@H](Cc1ccccc1Cl)NC(=O)[C@@H](NC(=O)c1cccs1)C(C)(C)C)N(C#N)Cc1cccc(Cl)c1F` showed a concentration for half-maximal inhibition (IC50) of 0.026 µM. The compound also came in with a Ki in data set [4] of 0.0561 µM.

Consider `CN(C(=O)[C@H](Cc1cccs1)NC(=O)[C@@H](NC(=O)c1cccs1)C(C)(C)C)N(C#N)Cc1cccc(Cl)c1F`, for which the midpoint of inhibition in data set [1], the IC50, lay at 0.009 µM. Besides, the inhibition constant (Ki) in data set [4] came to 0.13 µM; in data set [2], 0.00645 µM.

Consider `CN(C(=O)[C@H](Cc1ccccc1)NC(=O)[C@@H](NC(=O)c1cccs1)C1CCCCC1)N(C#N)Cc1ccc(Cl)cc1`, for which the IC50 in data set [1] was found to be 0.018 µM. Further, the Ki in [4] came to 0.0251 µM; in [2], 0.013 µM.

As for `CN(C(=O)[C@H](Cc1cccc(Cl)c1)NC(=O)[C@@H](NC(=O)c1cccs1)C(C)(C)C)N(C#N)Cc1cccc(Cl)c1F`, the IC50 in [1] stood at 0.009 µM. In addition, in [4], the Ki worked out at 0.163 µM.

`CN1C(=O)[C@H](Cc2ccccc2)N(C(=O)COc2ccc(Cl)cc2Cl)CCCOc2c(Cl)cccc2CN1C#N`: in data set [1], it took 0.038 µM to reach half-maximal inhibition (IC50). In data set [9], the half-life at 24 h, 100 µM is 1.76 h. In addition, affinity in [2] was put at a Ki of 0.0268 µM. The half-life at 100 µM in data set [10] came out at 1.92 h. Besides, in data set [6], a half-maximal response (EC50) required 2.14 µM. For the same compound, in data set [11], the inhibition at […] was 58%.

In data set [10], `CCN(CC)CCOC(=O)c1ccc(N)cc1.Cl` [PROCAINE HYDROCHLORIDE] gave a half-life at 100 µM of 0.103 h.

In [10], `COc1ccc([C@@H]2Sc3ccccc3N(CCN(C)C)C(=O)[C@@H]2OC(C)=O)cc1.Cl` [DILTIAZEM HYDROCHLORIDE] gave a half-life at 100 µM of 13.1 h.
